29 molecules from patent US6699854B2, “Anti-cancer compounds” (Cyclacel Limited, priority 2000, dated 2004) can be followed below.

The target of one experiment is T1, CDK2/cyclin E (Homo sapiens, UniProt P24941).
T1 construct: His; made in house; host or cells: Sf9 insect cells (baculovirus)
The experiment can be described thus: CDK2/cyclin E kinase assay (GST-Rb phosphorylation).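 Also: enzyme source: His-tagged CDK2/cyclin E co-expressed in Sf9 insect cells via baculovirus, then purified by metal-chelate chromatography.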 In kind it is biochemical. As to conditions: Table 2, further results for CDK2/cyclin E inhibition; read-out: CDK2/cyclin E.

The test system of another experiment is A549. The experiment in a line: 72-h MTT cytotoxicity assay, A549. In kind it is cell-based, human. As to the method:
Selected compounds from the above examples were subjected to a standard cellular proliferation assay using a range of different human tumour cell lines. Standard 72-h MTT (thiazolyl blue; 3-{4,5-dimethylthiazol-2-yl}-2,5-diphenyltetrazolium bromide) assays were performed (Haselsberger, K.; Peterson, D. C.; Thomas, D. G.; Darling, J. L. Anti Cancer Drugs 1996, 7, 331-8; Loveland, B. E.; Johns, T. G.; Mackay, I. R.; Vaillant, F.; Wang, Z. X.; Hertzog, P. J. Biochemistry International 1992, 27, 501-10). Human tumour cell lines were obtained from the ATCC (American Type Culture Collection, 10801 University Boulevard, Manessas, Va. 20110-2209, USA).
In general terms: Formazan colour is commonly taken as a measure of viable cells.

The mark [1] stands for this setting: Homo sapiens, Table 4, additional data for cytotoxicity assay using the A549 cell line, read-out: A549.

Read-outs that look alike come from different tables or passages of the source.

Turning to `Cc1nc(C)c(-c2ccnc(Nc3ccc(O)c(Cl)c3)n2)s1` [Compound 97, 2-Chloro-4-{4-(2,4-dimethyl-thiazol-5-yl)-pyrimidin-2-ylamino}-phenol], the IC50 at CDK2/cyclin E was 0.6 µM; with A549 (setting [1]), 4.2 ± 0.4 µM.

Regarding `CNc1nc(C)c(-c2ccnc(Nc3ccc(F)cc3)n2)s1` [Compound 62, (4-Fluoro-phenyl)-{4-(4-methyl-2-methylamino-thiazol-5-yl)-pyrimidin-2-yl}-amine], the IC50 was 0.06 ± 0.03 µM on CDK2/cyclin E and 1.1 ± 0.2 µM with A549 (setting [1]).

On to `CNc1nc(C)c(-c2ccnc(Nc3ccc(C(F)(F)F)cc3)n2)s1` [Compound 89, {4-(4-Methyl-2-methylamino-thiazol-5-yl)-pyrimidin-2-yl}-(4-trifluoromethyl-phenyl)-amine], for which the values for the IC50 at CDK2/cyclin E and in the experiment with A549 (setting [1]) were 1.2 µM and 18 ± 11 µM, respectively.

As to `CNc1nc(C)c(-c2ccnc(Nc3ccc(F)cc3F)n2)s1` [Compound 105, (2,4-Difluoro-phenyl)-{4-(4-methyl-2-methylamino-thiazol-5-yl)-pyrimidin-2-yl}-amine], the IC50 was found to be 2 µM on CDK2/cyclin E and 0.7 ± 0.9 µM with A549 (setting [1]).

Take `CCNc1nc(C)c(-c2ccnc(Nc3ccc(F)cc3)n2)s1` [Compound 75, {4-(2-Ethylamino-4-methyl-thiazol-5-yl)-pyrimidin-2-yl}-(4-fluoro-phenyl)-amine]: the IC50 on CDK2/cyclin E was 0.2 µM; in the experiment with A549 (setting [1]), 3.2 ± 0.4 µM.

`Cc1nc(C)c(-c2ccnc(Nc3cccc(C#N)c3)n2)s1` [Compound 49, 3-{4-(2,4-Dimethyl-thiazol-5-yl)-pyrimidin-2-ylamino}-benzonitrile]: the IC50 on CDK2/cyclin E is 0.02 µM; in the experiment on A549 (setting [1]), 2.2 ± 0.02 µM.

Take `CNc1nc(C)c(-c2ccnc(Nc3cccc([N+](=O)[O-])c3)n2)s1` [Compound 76, (4-{4-Methyl-2-methylamino-thiazol-5-yl)-pyrimidin-2-yl}-(3-nitro-phenyl)-amine]: the IC50 worked out at 0.8 µM on CDK2/cyclin E and 3 ± 0.9 µM in the experiment on A549 (setting [1]).

As for `Cc1nc(C)c(-c2ccnc(Nc3ccc(F)c(F)c3)n2)s1` [Compound 36, (3,4-Difluoro-phenyl)-{4-(2,4-dimethyl-thiazol-5-yl)-pyrimidin-2-yl}-amine], the IC50 on CDK2/cyclin E is 0.5 ± 0.2 µM.

As for `COC(=O)c1ccc(Nc2nccc(-c3sc(C)nc3C)n2)cc1` [Compound 50, 4-{4-(2,4-Dimethyl-thiazol-5-yl)-pyrimidin-2-ylamino}-benzoic acid methyl ester], the results for the IC50 on CDK2/cyclin E and in the experiment with A549 (setting [1]) were 0.3 µM and 8.8 ± 10 µM, respectively.

As for `CNc1nc(C)c(-c2ccnc(Nc3cccc(F)c3)n2)s1` [Compound 103, (3-Fluoro-phenyl)-{4-(4-methyl-2-methylamino-thiazol-5-yl)-pyrimidin-2-yl}-amine], the IC50 on CDK2/cyclin E came out at 1.2 µM.

Take `Cc1nc(C)c(-c2ccnc(Nc3cc(F)cc(F)c3)n2)s1` [Compound 23, (3,5-Difluoro-phenyl)-{4-(2,4-dimethyl-thiazol-5-yl)-pyrimidin-2-yl}-amine]: the IC50 at CDK2/cyclin E worked out at 1.7 µM.

Turning to `O=[N+]([O-])c1cccc(Nc2nccc(-c3cc(Cl)sc3Cl)n2)c1` [Compound 9, {4-(2,5-Dichloro-thiophen-3-yl)-pyrimidin-2-yl}-(3-nitro-phenyl)-amine], the IC50 on CDK2/cyclin E is 4.7 µM.

For `CCN(CC)CCOCc1cccc(Nc2nccc(-c3sc(C)nc3C)n2)c1` [Compound 118, {3-(2-Diethylamino-ethoxymethyl)-phenyl}-{4-(2,4-dimethyl-thiazol-5-yl)-pyrimidin-2-yl}-amine], at CDK2/cyclin E, the IC50 was 0.7 µM.

Take `COC(=O)c1ccc(Nc2nccc(-c3sc(C)nc3C)n2)cc1Cl` [Compound 101, 2-Chloro-4-{4-(2,4-dimethyl-thiazol-5-yl)-pyrimidin-2-ylamino}-benzoic acid methyl ester]: the IC50 in the experiment on A549 (setting [1]) was determined as 0.9 ± 0.2 µM.

In the case of `CCOC(=O)c1cc(Nc2nccc(-c3sc(C)nc3C)n2)ccc1Cl` [Compound 92, 2-Chloro-5-{4-(2,4-dimethyl-thiazol-5-yl)-pyrimidin-2-ylamino}-benzoic acid ethyl ester], in the experiment on A549 (setting [1]), the IC50 stood at 4.4 ± 3 µM.

Regarding `C=CCNc1nc(C)c(-c2ccnc(Nc3cccc([N+](=O)[O-])c3)n2)s1` [Compound 91, {4-(2-Allylamino-4-methyl-thiazol-5-yl)-pyrimidin-2-yl}-(3-nitro-phenyl)-amine], the IC50 with A549 (Table 4, additional data for cytotoxicity assay using the A549 cell line, read-out: A549) turned out to be 22.1 ± 0.2 µM.

Turning to `Cc1nc(C)c(-c2ccnc(Nc3cccc(Cl)c3)n2)s1` [Compound 7, (3-Chloro-phenyl)-{4-(2,4-dimethyl-thiazol-5-yl)-pyrimidin-2-yl}-amine], the IC50 in the experiment with A549 (setting [1]) turned out to be 2.8 µM.

For the molecule `Cc1nc(N)sc1-c1ccnc(Nc2ccc(O)cc2)n1` [Compound 114, 4-{4-(2-Amino-4-methyl-thiazol-5-yl)-pyrimidin-2-ylamino}-phenol], the IC50 on CDK2/cyclin E came out at 1.4 µM.

For `Cc1nc(C)c(-c2ccnc(Nc3ccccc3C(F)(F)F)n2)s1` [Compound 27, {4-(2,4-Dimethyl-thiazol-5-yl)-pyrimidin-2-yl}-(2-trifluoromethyl-phenyl)-amine], the IC50 with A549 (setting [1]) amounted to 3.8 µM.

Consider `Cc1nc(C)c(-c2ccnc(Nc3cccc(O)c3)n2)s1` [Compound 40, 3-{4-(2,4-Dimethyl-thiazol-5-yl)-pyrimidin-2-ylamino}-phenol], for which the IC50 in the experiment with A549 (setting [1]) was 0.3 µM.

For the molecule `CNc1nc(C)c(-c2ccnc(Nc3ccc(O)cc3)n2)s1` [Compound 63, 4-{4-(4-Methyl-2-methylamino-thiazol-5-yl)-pyrimidin-2-ylamino}-phenol], in the experiment on A549 (Homo sapiens, A549, read-out: A549), the IC50 came to 0.8 ± 0.2 µM.

Turning to `Clc1ccc(Nc2nccc(-c3cc(Cl)sc3Cl)n2)cc1` [Compound 3, (4-Chloro-phenyl)-{4-(2,5-dichloro-thiophen-3-yl)-pyrimidin-2-yl}-amine], the IC50 in the experiment with A549 (setting [1]) is 5 ± 4 µM.

As to `Cc1nc(-c2ccccc2)sc1-c1ccnc(Nc2ccc(F)c(F)c2)n1` [Compound 59, (3,4-Difluoro-phenyl)-{4-(4-methyl-2-phenyl-thiazol-5-yl)-pyrimidin-2-yl}-amine], the IC50 in the experiment with A549 (setting [1]) was 22 ± 21 µM.

Regarding `Clc1cccc(Nc2nccc(-c3cc(Cl)sc3Cl)n2)c1` [Compound 4, (3-Chloro-phenyl)-{4-(2,5-dichloro-thiophen-3-yl)-pyrimidin-2-yl}-amine], the IC50 with A549 (setting [1]) is 16 ± 11 µM.

For the molecule `CCOC(=O)c1cccc(Cl)c1Nc1nccc(-c2sc(C)nc2C)n1` [Compound 93, 3-Chloro-2-{4-(2,4-dimethyl-thiazol-5-yl)-pyrimidin-2-ylamino}-benzoic acid ethyl ester], in the experiment on A549 (setting [1]), the IC50 came out at 1.1 ± 1 µM.

As for `Cc1nc(C)c(-c2ccnc(Nc3cc(Cl)cc(Cl)c3)n2)s1` [Compound 24, (3,5-Dichloro-phenyl)-{4-(2,4-dimethyl-thiazol-5-yl)-pyrimidin-2-yl}-amine], in the experiment on A549 (setting [1]), the IC50 stood at 5 µM.

`Cc1nc(C)c(-c2cc(Br)nc(Nc3cccc([N+](=O)[O-])c3)n2)s1` [Compound 54, {4-Bromo-6-(2,4-dimethyl-thiazol-5-yl)-pyrimidin-2-yl}-(3-nitro-phenyl)-amine]: the IC50 on CDK2/cyclin E is 0.01 µM.

For `COc1ccc(Nc2nccc(-c3sc(C)nc3C)n2)c(O)c1` [Compound 95, 2-{4-(2,4-Dimethyl-thiazol-5-yl)-pyrimidin-2-ylamino}-5-methoxy-phenol], the IC50 in the experiment with A549 (setting [1]) stood at 0.05 ± 0.03 µM.

`CNc1nc(C)c(-c2ccnc(Nc3cccc(Cl)c3)n2)s1` [Compound 108, (3-Chloro-phenyl)-{4-(4-methyl-2-methylamino-thiazol-5-yl)-pyrimidin-2-yl}-amine]: at CDK2/cyclin E, the IC50 turned out to be 0.8 µM.
